# According to US10829481B2, “Benzimidazole derivatives as modulators of ROR-gamma” (Vitae Pharmaceuticals, LLC, priority 2016, dated 2020):
# pIC50, pKi: −log10 of the molar value.
# Columns and labels:
# [1] = molecular target: recombinant RORγ Ligand Binding Domain (LBD) protein (Homo sapiens (Human), UniProt P51449); assay: Radio-Ligand RORγ Binding Assay (Assay 1); details: competition with 25-hydroxy [26,27-3H]-cholesterol, SPA
# Outline: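 Scintillation proximity competition against 25-hydroxy [26,27-^3H]-cholesterol (8.6 nM solution) for 6×His-GST-tagged RORγ LBD (24 nM solution) in HEPES pH 7.4 with CHAPS, β-octylglucopyranoside and DTT; semi-log compound dilutions, ~1 h total at rt with poly-Lys YSi beads. IC50 from four-parameter fit; Ki derived from [RL] and radioligand KD.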
# [2] = molecular target: full-length RORγt in Jurkat cells (Homo sapiens (Human), UniProt P51449); assay: RORγt 5×RORE Assay in Jurkat Cells (Assay 2); assay type: cell-based; details: 5×RORE Nanoluc luciferase reporter
# full-length RORγt in Jurkat cells, sequence (P51449 other isoform, or with tags, fused parts or gaps): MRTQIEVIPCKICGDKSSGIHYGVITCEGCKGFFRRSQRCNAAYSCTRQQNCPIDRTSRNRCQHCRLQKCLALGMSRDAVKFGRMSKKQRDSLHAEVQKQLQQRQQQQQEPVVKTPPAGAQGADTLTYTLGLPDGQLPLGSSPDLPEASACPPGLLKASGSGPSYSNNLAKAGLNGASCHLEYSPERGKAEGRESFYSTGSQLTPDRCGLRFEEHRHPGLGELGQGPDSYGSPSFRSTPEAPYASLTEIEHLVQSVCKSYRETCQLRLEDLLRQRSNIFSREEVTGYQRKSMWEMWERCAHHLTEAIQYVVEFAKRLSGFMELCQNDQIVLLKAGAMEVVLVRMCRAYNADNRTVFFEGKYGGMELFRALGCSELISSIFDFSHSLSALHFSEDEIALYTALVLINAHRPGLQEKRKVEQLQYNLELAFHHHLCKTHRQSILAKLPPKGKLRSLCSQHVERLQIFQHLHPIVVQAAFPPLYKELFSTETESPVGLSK
# recombinant RORγ Ligand Binding Domain (LBD) protein, sequence (P51449 269-508): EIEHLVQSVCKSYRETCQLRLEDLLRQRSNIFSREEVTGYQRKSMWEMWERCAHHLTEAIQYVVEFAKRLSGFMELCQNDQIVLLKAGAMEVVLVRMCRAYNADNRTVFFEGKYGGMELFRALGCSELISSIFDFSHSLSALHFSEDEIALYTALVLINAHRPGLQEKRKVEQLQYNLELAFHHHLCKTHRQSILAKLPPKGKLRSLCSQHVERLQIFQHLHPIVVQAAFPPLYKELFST
SMILES,pKi [1],pIC50 [2]
"CCS(=O)(=O)c1ccc(CNC(=O)c2ccc3c(c2)nc(C(F)(F)F)n3Cc2cccc(C#N)c2)cc1 [I-90, 1-(3-cyanobenzyl)-N-(4-(ethylsulfonyl)benzyl)-2-(trifluoromethyl)-1H-benzo[d]imidazole-5-carboxamide]",> 7.00,> 7.00
"CCS(=O)(=O)c1ccc(CNC(=O)c2ccc3c(c2)nc(C(F)(F)F)n3C2(c3cccc(C#N)c3)CC2)cc1 [I-92, 1-(1-(3-cyanophenyl)cyclopropyl)-N-(4-(ethylsulfonyl)benzyl)-2-(trifluoromethyl)-1H-benzo[d]imidazole-5-carboxamide]",> 7.00,6.00 to 7.00
"CCS(=O)(=O)c1ccc(CNC(=O)c2ccc3c(c2)nc(C(F)(F)F)n3[C@@H](C)c2cccc(C#N)c2)cc1 [I-93.1, (S)-1-(1-(3-cyanophenyl)ethyl)-N-(4-(ethylsulfonyl)benzyl)-2-(trifluoromethyl)-1H-benzo[d]imidazole-5-carboxamide]",> 7.00,> 7.00
"CCS(=O)(=O)c1ccc(CNC(=O)c2ccc3c(c2)nc(C(F)(F)F)n3Cc2cc(C#N)ccc2F)cc1 [I-94, 1-(5-cyano-2-fluorobenzyl)-N-(4-(ethylsulfonyl)benzyl)-2-(trifluoromethyl)-1H-benzo[d]imidazole-5-carboxamide]",> 7.00,6.00 to 7.00
"CCS(=O)(=O)c1ccc(CNC(=O)c2ccc3c(c2)nc(C(F)(F)F)n3Cc2cccc3occc23)cc1 [I-95, 1-(benzofuran-4-ylmethyl)-N-(4-(ethylsulfonyl)benzyl)-2-(trifluoromethyl)-1H-benzo[d]imidazole-5-carboxamide]",> 7.00,> 7.00
"CCS(=O)(=O)c1ccc(CNC(=O)c2ccc3c(c2)nc(C(F)(F)F)n3Cc2cccc3[nH]ncc23)cc1 [I-97, 1-((1H-indazol-4-yl)methyl)-N-(4-(ethylsulfonyl)benzyl)-2-(trifluoromethyl)-1H-benzo[d]imidazole-5-carboxamide]",> 7.00,> 7.00
"CCS(=O)(=O)c1ccc(CNC(=O)c2ccc3c(c2)nc(C(F)(F)F)n3Cc2cccc3c2OCO3)cc1 [I-98, 1-(benzo[d][1,3]dioxol-4-ylmethyl)-N-(4-(ethylsulfonyl)benzyl)-2-(trifluoromethyl)-1H-benzo[d]imidazole-5-carboxamide]",> 7.00,> 7.00
"CCS(=O)(=O)c1ccc(CNC(=O)c2ccc3c(c2)nc(C(F)(F)F)n3Cc2cncc3[nH]ccc23)cc1 [I-100, 1-((1H-pyrrolo[2,3-c]pyridin-4-yl)methyl)-N-(4-(ethylsulfonyl)benzyl)-2-(trifluoromethyl)-1H-benzo[d]imidazole-5-carboxamide]",> 7.00,6.00 to 7.00
"CCS(=O)(=O)c1ccc([C@H](CO)NC(=O)c2ccc3c(c2)nc(C2CC2)n3Cc2cccc3c2OC(C)(C)C3)cc1 [I-101, (R)-2-cyclopropyl-1-((2,2-dimethyl-2,3-dihydrobenzofuran-7-yl)methyl)-N-(1-(4-(ethylsulfonyl)phenyl)-2-hydroxyethyl)-1H-benzo[d]imidazole-5-carboxamide]",> 7.00,< 6.00
"CCS(=O)(=O)c1ccc([C@H](CO)NC(=O)c2ccc3c(c2)nc(C2CC2)n3Cc2cccc3c2OCC3)cc1 [I-102, (R)-2-cyclopropyl-1-((2,3-dihydrobenzofuran-7-yl)methyl)-N-(1-(4-(ethylsulfonyl)phenyl)-2-hydroxyethyl)-1H-benzo[d]imidazole-5-carboxamide]",> 7.00,> 7.00
"CCS(=O)(=O)c1ccc(CNC(=O)c2ccc3c(c2)nc(C2CC2)n3[C@@H](C)c2cccc3c2OC(F)(F)O3)cc1 [I-116, (S)-2-cyclopropyl-1-(1-(2,2-difluorobenzo[d][1,3]dioxol-4-yl)ethyl)-N-(4-(ethylsulfonyl)benzyl)-1H-benzo[d]imidazole-5-carboxamide]",> 7.00,> 7.00
"O=C(O)CC1CCC(CNC(=O)c2ccc3c(c2)nc(C(F)(F)F)n3Cc2cccc3c2OC(F)(F)O3)CC1 (stereo not drawn) [I-120, 2-(4-((1-((2,2-difluorobenzo[d][1,3]dioxol-4-yl)methyl)-2-(trifluoromethyl)-1H-benzo[d]imidazole-5-carboxamido)methyl)cyclohexyl)acetic acid]",> 7.00,6.00 to 7.00
"N#Cc1ccc([C@H](CO)NC(=O)c2ccc3c(c2)nc(C(F)(F)F)n3Cc2cccc3c2OC(F)(F)O3)cc1 [I-122, (R)-N-(1-(4-cyanophenyl)-2-hydroxyethyl)-1-((2,2-difluorobenzo[d][1,3]dioxol-4-yl)methyl)-2-(trifluoromethyl)-1H-benzo[d]imidazole-5-carboxamide]",> 7.00,> 7.00
"CCS(=O)(=O)c1ccc([C@H](CO)NC(=O)c2ccc3c(c2)nc(C(F)(F)F)n3Cc2cccc3c2OC(F)(F)O3)c(F)c1 [I-123, (R)-1-((2,2-difluorobenzo[d][1,3]dioxol-4-yl)methyl)-N-(1-(4-(ethylsulfonyl)-2-fluorophenyl)-2-hydroxyethyl)-2-(trifluoromethyl)-1H-benzo[d]imidazole-5-carboxamide]",> 7.00,> 7.00
"CCc1nc2cc(C(=O)NCc3ccc(S(=O)(=O)CC)cc3)ccc2n1[C@@H](C)c1cccc2c1OC(F)(F)O2 [I-125.1, (S)-1-(1-(2,2-difluorobenzo[d][1,3]dioxol-4-yl)ethyl)-2-ethyl-N-(4-(ethylsulfonyl)benzyl)-1H-benzo[d]imidazole-5-carboxamide]",> 7.00,< 6.00
"CCc1nc2cc(C(=O)NCc3ccc(S(=O)(=O)CC)cc3)ccc2n1[C@H](C)c1cccc2c1OC(F)(F)O2 [I-125.2, (R)-1-(1-(2,2-difluorobenzo[d][1,3]dioxol-4-yl)ethyl)-2-ethyl-N-(4-(ethylsulfonyl)benzyl)-1H-benzo[d]imidazole-5-carboxamide]",> 7.00,> 7.00
"CCS(=O)(=O)c1ccc(CNC(=O)c2ccc3c(c2)nc(C(F)(F)F)n3Cc2cccc3c2OC(F)(F)O3)c(O)c1 [I-126, 1-((2,2-difluorobenzo[d][1,3]dioxol-4-yl)methyl)-N-(4-(ethylsulfonyl)-2-hydroxybenzyl)-2-(trifluoromethyl)-1H-benzo[d]imidazole-5-carboxamide]",> 7.00,> 7.00

# Continued, values first:
pKi [1],pIC50 [2],SMILES
> 7.00,6.00 to 7.00,"CCS(=O)(=O)c1ccc(CNC(=O)c2ccc3c(c2)nc(C(F)(F)F)n3Cc2cccc(C(=O)OC)c2)cc1 [I-99, methyl 3-((5-((4-(ethylsulfonyl)benzyl)carbamoyl)-2-(trifluoromethyl)-1H-benzo[d]imidazol-1-yl)methyl)benzoate]"
> 7.00,6.00 to 7.00,"CCS(=O)(=O)c1ccc(CNC(=O)c2ccc3c(c2)nc(C2CC2)n3Cc2cc(OC)cc(OC)c2)cc1 [I-103, 2-cyclopropyl-1-(3,5-dimethoxybenzyl)-N-(4-(ethylsulfonyl)benzyl)-1H-benzo[d]imidazole-5-carboxamide]"
> 7.00,< 6.00,"CCS(=O)(=O)c1ccc(CNC(=O)c2ccc3c(c2)nc(C2CC2)n3Cc2ccc(OC(F)(F)F)cc2)cc1 [I-104, 2-cyclopropyl-N-(4-(ethylsulfonyl)benzyl)-1-(4-(trifluoromethoxy)benzyl)-1H-benzo[d]imidazole-5-carboxamide]"
> 7.00,6.00 to 7.00,"CCS(=O)(=O)c1ccc(CNC(=O)c2ccc3c(c2)nc(C2CC2)n3Cc2ccccc2OC(F)(F)F)cc1 [I-106, 2-cyclopropyl-N-(4-(ethylsulfonyl)benzyl)-1-(2-(trifluoromethoxy)benzyl)-1H-benzo[d]imidazole-5-carboxamide]"
> 7.00,> 7.00,"CCS(=O)(=O)c1ccc(CNC(=O)c2ccc3c(c2)nc(C2CC2)n3Cc2cccc(OC(F)(F)F)c2)cc1 [I-109, 2-cyclopropyl-N-(4-(ethylsulfonyl)benzyl)-1-(3-(trifluoromethoxy)benzyl)-1H-benzo[d]imidazole-5-carboxamide]"
> 7.00,> 7.00,"CCS(=O)(=O)c1ccc(CNC(=O)c2ccc3c(c2)nc(C2CC2)n3Cc2cccc(OC(F)F)c2)cc1 [I-113, 2-cyclopropyl-1-(3-(difluoromethoxy)benzyl)-N-(4-(ethylsulfonyl)benzyl)-1H-benzo[d]imidazole-5-carboxamide]"
> 7.00,> 7.00,"CCS(=O)(=O)c1ccc(CNC(=O)c2ccc3c(c2)nc(C2CC2)n3Cc2cc(OC)cc(OC(F)(F)F)c2)cc1 [I-115, 2-cyclopropyl-N-(4-(ethylsulfonyl)benzyl)-1-(3-methoxy-5-(trifluoromethoxy)benzyl)-1H-benzo[d]imidazole-5-carboxamide]"
> 7.00,< 6.00,"CCS(=O)(=O)c1ccc(CNC(=O)c2ccc3c(c2)nc(C2CC2)n3Cc2cccc3c2OC(C)(C)C3)cc1 [I-118, 2-cyclopropyl-1-((2,2-dimethyl-2,3-dihydrobenzofuran-7-yl)methyl)-N-(4-(ethylsulfonyl)benzyl)-1H-benzo[d]imidazole-5-carboxamide]"
> 7.00,> 7.00,"CCS(=O)(=O)c1ccc(CNC(=O)c2ccc3c(c2)nc(C2CC2)n3Cc2cccc(OC)c2OC)cc1 [I-119, 2-cyclopropyl-1-(2,3-dimethoxybenzyl)-N-(4-(ethylsulfonyl)benzyl)-1H-benzo[d]imidazole-5-carboxamide]"
> 7.00,< 6.00,"COc1cc(Cn2c(C(F)(F)F)nc3cc(C(=O)NCc4ccc(S(=O)(=O)CCO)cc4)ccc32)cc(OC)c1 [I-124, 1-(3,5-dimethoxybenzyl)-N-(4-((2-hydroxyethyl)sulfonyl)benzyl)-2-(trifluoromethyl)-1H-benzo[d]imidazole-5-carboxamide]"
